# ± gives the expanded uncertainty stated by the source.
# Settings: Liquid, Closed cell (Static) method
SMILES,vapor or sublimation pressure (277.96 K) [kPa],vapor or sublimation pressure (282.06 K) [kPa],vapor or sublimation pressure (286.15 K) [kPa],vapor or sublimation pressure (290.25 K) [kPa],vapor or sublimation pressure (294.35 K) [kPa],vapor or sublimation pressure (298.15 K) [kPa],vapor or sublimation pressure (302.54 K) [kPa],vapor or sublimation pressure (306.64 K) [kPa],vapor or sublimation pressure (310.74 K) [kPa],vapor or sublimation pressure (318.15 K) [kPa],vapor or sublimation pressure (323.15 K) [kPa],vapor or sublimation pressure (288.15 K) [kPa],vapor or sublimation pressure (293.15 K) [kPa],vapor or sublimation pressure (303.15 K) [kPa],vapor or sublimation pressure (328.15 K) [kPa],vapor or sublimation pressure (333.15 K) [kPa],vapor or sublimation pressure (338.15 K) [kPa],vapor or sublimation pressure (343.15 K) [kPa],vapor or sublimation pressure (348.15 K) [kPa],vapor or sublimation pressure (353.15 K) [kPa],other results
COC(=O)OC [dimethyl carbonate],2.298 ± 0.23,3.121 ± 0.32,4.019 ± 0.4,4.863 ± 0.49,6.311 ± 0.63,6.982 ± 0.7,9.72 ± 0.98,11.7 ± 1.2,14.02 ± 1.4,19.82 ± 2,23.07 ± 2.3,–,–,–,–,–,–,–,–,–,–
CCOC(=O)OCC [diethyl carbonate],0.401 ± 0.13,0.515 ± 0.13,0.666 ± 0.13,–,–,1.414 ± 0.14,–,2.347 ± 0.24,3.012 ± 0.3,4.582 ± 0.46,6.172 ± 0.62,0.797 ± 0.13,1.031 ± 0.13,1.844 ± 0.19,7.162 ± 0.72,9.088 ± 0.91,11.56 ± 1.2,13.78 ± 1.4,16.09 ± 1.6,20.83 ± 2.1,–
CCOC(=O)OC [ethyl methyl carbonate],0.958 ± 0.13,1.285 ± 0.13,–,–,–,3.658 ± 0.37,–,–,6.739 ± 0.68,–,12.28 ± 1.2,2.008 ± 0.2,2.439 ± 0.25,4.534 ± 0.46,15.26 ± 1.5,18.28 ± 1.8,–,–,–,–,vapor or sublimation pressure (283.15 K): 1.516 ± 0.16 kPa; vapor or sublimation pressure (308.15 K): 5.801 ± 0.58 kPa; vapor or sublimation pressure (314.83 K): 7.885 ± 0.79 kPa
O [water],0.961 ± 0.13,1.243 ± 0.13,1.442 ± 0.15,1.947 ± 0.2,2.537 ± 0.26,–,4.068 ± 0.41,5.035 ± 0.51,7.056 ± 0.71,–,–,–,–,–,–,–,–,–,–,–,vapor or sublimation pressure (298.44 K): 3.288 ± 0.33 kPa; vapor or sublimation pressure (314.83 K): 8.582 ± 0.86 kPa; vapor or sublimation pressure (318.93 K): 9.702 ± 0.97 kPa; vapor or sublimation pressure (323.03 K): 11.46 ± 1.2 kPa; vapor or sublimation pressure (327.12 K): 15.18 ± 1.5 kPa

# Now from value to molecule, other results behind:
vapor or sublimation pressure (277.96 K) [kPa],vapor or sublimation pressure (282.06 K) [kPa],vapor or sublimation pressure (286.15 K) [kPa],vapor or sublimation pressure (290.25 K) [kPa],vapor or sublimation pressure (294.35 K) [kPa],vapor or sublimation pressure (298.15 K) [kPa],vapor or sublimation pressure (302.54 K) [kPa],vapor or sublimation pressure (306.64 K) [kPa],vapor or sublimation pressure (310.74 K) [kPa],vapor or sublimation pressure (318.15 K) [kPa],vapor or sublimation pressure (323.15 K) [kPa],vapor or sublimation pressure (288.15 K) [kPa],vapor or sublimation pressure (293.15 K) [kPa],vapor or sublimation pressure (303.15 K) [kPa],vapor or sublimation pressure (328.15 K) [kPa],vapor or sublimation pressure (333.15 K) [kPa],vapor or sublimation pressure (338.15 K) [kPa],vapor or sublimation pressure (343.15 K) [kPa],vapor or sublimation pressure (348.15 K) [kPa],vapor or sublimation pressure (353.15 K) [kPa],SMILES,other results
–,–,–,–,–,–,–,–,–,–,–,–,–,–,–,0.045,0.066 ± 0.13,0.087 ± 0.13,0.124 ± 0.13,0.175 ± 0.13,O=C1OCCO1 [ethylene carbonate],–
–,–,–,–,–,–,–,–,–,–,–,–,–,–,–,–,0.123 ± 0.13,0.185 ± 0.13,0.221 ± 0.13,0.287 ± 0.13,"CC1COC(=O)O1 (stereo not given) [4-methyl-1,3-dioxolan-2-one]",vapor or sublimation pressure (327.12 K): 0.057 kPa; vapor or sublimation pressure (331.22 K): 0.078 ± 0.13 kPa
